# Laboratory results: patent publication US9018388B2, “Pesticidal compositions and processes related thereto” (Dow AgroSciences LLC, priority 2012, dated 2015)
# Columns and labels:
# Type in all cases: in vivo
# [1] = tested on: Beet Armyworm (BAW) (Spodoptera exigua); test: Bioassay on beet armyworm (BAW), 128-well diet tray assay; details: Spodoptera exigua; Beet armyworm, 50 μg/cm^2; read-out: % Mortality BAW 50 μg/cm^2
# How it was run: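 Second-instar Spodoptera exigua larvae, one to five per well, on artificial diet treated with 50 μg/cm^2 compound in 90:10 acetone-water and dried, eight wells per compound. Held at 25 °C, 14:10 light-dark for five to seven days; percent mortality averaged over wells.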
# [2] = tested on: Corn Earworm (CEW) (Helicoverpa zea); test: Bioassay on corn earworm (CEW), 128-well diet tray assay; details: Helicoverpa zea; Corn earworm, 50 μg/cm^2; read-out: % Mortality CEW 50 μg/cm^2
# How it was run: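 Second-instar Helicoverpa zea larvae (one to five per well) placed on artificial diet treated with 50 μg/cm^2 compound in 90:10 acetone-water, dried, eight wells per compound. Held at 25 °C, 14:10 light-dark, five to seven days; percent mortality averaged over wells.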
# [3] = tested on: Green Peach Aphid (GPA) (Myzus persicae); test: Bioassay on green peach aphid (GPA), foliar spray on cabbage seedlings; details: 72 h, read-out: % Mortality GPA 200 ppm
# Protocol: Bioassays on Green Peach Aphid (“GPA”) (Myzus persicae)
# Certain molecules disclosed in this document were tested against GPA using procedures described in the following example. In the reporting of the results, the “GPA Rating Table” was used (See Table Section).
# Cabbage seedlings grown in 3-inch pots, with 2-3 small (3-5 cm) true leaves, were used as test substrate. The seedlings were infested with 20-50 GPA (wingless adult and nymph stages) one day prior to chemical application. Four pots with individual seedlings were used for each treatment. Test compounds (2 mg) were dissolved in 2 mL of acetone/methanol (1:1) solvent, forming stock solutions of 1000 ppm test compound. The stock solutions were diluted 5× with 0.025% Tween 20 in H2O to obtain the solution at 200 ppm test compound. A hand-held aspirator-type sprayer was used for spraying a solution to both sides of […] leaves until runoff. Reference plants (solvent check) were sprayed with the diluent only containing 20% by volume of acetone/methanol (1:1) solvent. Treated plants were held in a holding room for three days at approximately 25° C. and ambient relative humidity (RH) prior to grading. Evaluation was conducted by counting the number of live aphids per plant under a microscope. Percent Control was measured by using Abbott's correction formula (W. S. Abbott, “A Method of Computing the Effectiveness of an Insecticide” J. Econ. Entomol. 18 (1925), pp. 265-267) as follows. Corrected%Control=100*(X−Y)/X • where • X=No. of live aphids on solvent check plants and • Y=No. of live aphids on treated plants
# The results are indicated in the table entitled “Table 5: Biological Results” (See Table Section).
smiles,measurement,setting,value
CCOCC(=O)OCS/C(=N\c1c(C)cc(OC)cc1C)N/N=C/c1ccc(-c2ncn(-c3ccc(OC(F)(F)F)cc3)n2)cc1 [Compound 29C],"pest or weed control at 50 µg/cm2, 50 µg/cm2",[1],50 to 100%
same,"pest or weed control at 50 µg/cm2, 50 µg/cm2",[2],50 to 100%
same,pest or weed control at 200 ppm,[3],0 to 80%
Cc1cccc(C)c1/N=C(/N/N=C/c1ccc(-c2ncn(-c3ccc(OC(F)(F)F)cc3)n2)cc1)SCOC(=O)CNC(=O)OC(C)(C)C [Compound 30C],"pest or weed control at 50 µg/cm2, 50 µg/cm2",[1],50 to 100%
same,"pest or weed control at 50 µg/cm2, 50 µg/cm2",[2],50 to 100%
same,pest or weed control at 200 ppm,[3],0 to 80%
CC(=O)OCS/C(=N\c1c(C)cccc1C)N/N=C/c1ccc(-c2ncn(-c3ccc(OC(F)(F)F)cc3)n2)cc1 [Compound 31C],"pest or weed control at 50 µg/cm2, 50 µg/cm2",[1],50 to 100%
same,"pest or weed control at 50 µg/cm2, 50 µg/cm2",[2],50 to 100%
same,pest or weed control at 200 ppm,[3],0 to 80%
CCOCC(=O)OCS/C(=N\c1c(Cl)cc(OC)cc1Cl)N/N=C/c1ccc(-c2ncn(-c3ccc(OC(F)(F)F)cc3)n2)cc1 [Compound 32C],pest or weed control at 200 ppm,[3],0 to 80%
COc1cc(Cl)c(/N=C(/N/N=C/c2ccc(-c3ncn(-c4ccc(OC(F)(F)F)cc4)n3)cc2)SCOC(=O)OC(C)C)c(Cl)c1 [Compound 33C],"pest or weed control at 50 µg/cm2, 50 µg/cm2",[1],50 to 100%
same,"pest or weed control at 50 µg/cm2, 50 µg/cm2",[2],50 to 100%
same,pest or weed control at 200 ppm,[3],0 to 80%
COc1cc(Cl)c(/N=C(/N/N=C/c2ccc(-c3ncn(-c4ccc(OC(F)(F)F)cc4)n3)cc2)SCOC(=O)C(C)C)c(Cl)c1 [Compound 34C],pest or weed control at 200 ppm,[3],0 to 80%
Cc1cccc(C)c1/N=C(/N/N=C/c1ccc(-c2ncn(-c3ccc(OC(F)(F)F)cc3)n2)cc1)SCOC(=O)C1CCCC1 [Compound 35C],"pest or weed control at 50 µg/cm2, 50 µg/cm2",[1],50 to 100%
same,"pest or weed control at 50 µg/cm2, 50 µg/cm2",[2],50 to 100%
same,pest or weed control at 200 ppm,[3],0 to 80%
COc1cc(C)c(/N=C(/N/N=C/c2ccc(-c3ncn(-c4ccc(OC(F)(F)F)cc4)n3)cc2)SCOC(=O)C(C)(C)C)c(C)c1 [Compound 40C],"pest or weed control at 50 µg/cm2, 50 µg/cm2",[1],50 to 100%
same,"pest or weed control at 50 µg/cm2, 50 µg/cm2",[2],50 to 100%
same,pest or weed control at 200 ppm,[3],0 to 80%
COc1cc(C)c(/N=C(/N/N=C/c2ccc(-c3ncn(-c4ccc(OC(F)(F)F)cc4)n3)cc2)SCOC(=O)C2CCCC2)c(C)c1 [Compound 43C],"pest or weed control at 50 µg/cm2, 50 µg/cm2",[1],50 to 100%
same,"pest or weed control at 50 µg/cm2, 50 µg/cm2",[2],50 to 100%
same,pest or weed control at 200 ppm,[3],0 to 80%
Cc1cccc(C)c1/N=C(/N/N=C/c1ccc(-c2ncn(-c3ccc(OC(F)(F)F)cc3)n2)cc1)SCC(=O)O [Compound 47C],"pest or weed control at 50 µg/cm2, 50 µg/cm2",[1],50 to 100%
same,"pest or weed control at 50 µg/cm2, 50 µg/cm2",[2],50 to 100%
same,pest or weed control at 200 ppm,[3],0 to 80%
Cc1cccc(C)c1/N=C(/N/N=C/c1ccc(-c2ncn(-c3ccc(OC(F)(F)C(F)(F)F)cc3)n2)cc1)SCC(=O)O [Compound 49C],"pest or weed control at 50 µg/cm2, 50 µg/cm2",[1],50 to 100%
same,"pest or weed control at 50 µg/cm2, 50 µg/cm2",[2],50 to 100%
same,pest or weed control at 200 ppm,[3],0 to 80%
COc1ccc(C(C)/N=C(/N/N=C/c2ccc(-c3ncn(-c4ccc(OC(F)(F)F)cc4)n3)cc2)SCC(=O)O)cc1 (stereo not shown) [Compound 52C],"pest or weed control at 50 µg/cm2, 50 µg/cm2",[1],0 to 50%
same,pest or weed control at 200 ppm,[3],0 to 80%
COc1ccc(C(C)/N=C(/N/N=C/c2ccc(-c3ncn(-c4ccc(OC(F)(F)F)cc4)n3)cc2)SCC(=O)O)cc1F (stereo not shown) [Compound 53C],"pest or weed control at 50 µg/cm2, 50 µg/cm2",[1],0 to 50%
same,pest or weed control at 200 ppm,[3],0 to 80%
Cc1cccc(C)c1/N=C(/N/N=C/c1ccc(-c2ncn(-c3ccc(OC(F)(F)F)cc3)n2)cc1)SCC(=O)N1CCN(C(=O)OC(C)(C)C)CC1 [Compound 57C],"pest or weed control at 50 µg/cm2, 50 µg/cm2",[1],50 to 100%
same,"pest or weed control at 50 µg/cm2, 50 µg/cm2",[2],50 to 100%
same,pest or weed control at 200 ppm,[3],0 to 80%
Cc1cccc(C)c1/N=C(/N/N=C/c1ccc(-c2ncn(-c3ccc(OC(F)(F)F)cc3)n2)cc1)SCC(=O)NCCCNC(=O)OC(C)(C)C [Compound 58C],"pest or weed control at 50 µg/cm2, 50 µg/cm2",[1],50 to 100%
same,"pest or weed control at 50 µg/cm2, 50 µg/cm2",[2],50 to 100%
same,pest or weed control at 200 ppm,[3],0 to 80%
"CC(C)c1ccccc1/N=C1\SCCCN1/N=C/c1ccc(-c2ncn(-c3ccc(C(F)(F)F)cc3)n2)cc1 [Compound 87C, (2Z,NE)-2-((2-isopropylphenyl)imino)-N-(4-(1-(4-(trifluoromethyl)phenyl)-1H-1,2,4-triazol-3-yl)benzylidene)-1,3-thiazinan-3-amine]",pest or weed control at 200 ppm,[3],0 to 80%
